According to patent US7303881B2, “Antigen delivery compositions and methods of use” (priority 2004, dated 2007):

What was measured:
[1] = test system: DC 2.4 cells; test: Expression of CD80 on DC 2.4 cells, cationic lipid head group and chain length; assay type: cell-based
Text: Both hydrophilic head and the lipophilic tail of the lipids have significant effect on this ability. […] The effect of the hydrocarbon tail region of the lipids on the DC cell stimulation also was systematically investigated (FIG. 8).

[2] = test system: EL4 cells pulsed with E7 peptide; test: Chromium release CTL assay after LPD/E7 vaccination; assay type: in vivo, C57BL/6 mice; conditions: 20 μg E7 peptide, IV and SC, days 0 and 5
Method: For comparison, mice were injected with 20 μg E7 peptide in PBS or encapsulated in SL liposomes. Five days after the final vaccination, splenocytes were collected, and used as effector cells in a chromium release assay. Consistent with previous reports, antigen containing SL liposomes induced significant levels of CTL activity (61% specific lysis) following SC injection only.
Cytolytic lymphocyte activity was measured using standard ^51Cr-release assays. Splenocytes were collected and cultured in RPMI supplemented with 10% FBS, 50 U/ml penicillin/streptomycin, 2 mM L-glutamine, 1 mM sodium pyruvate, 2 mM nonessential amino acids, 40 U/ml IL2, and 200 ng/ml MHC class I restricted E7 peptide for 4 days. Effector cells were plated into 96-well plates at various effector-to-target (E:T) cell ratios. Targets used were either EL4 cells pulsed with E7 peptide or non-pulsed EL4 cells. Targets were labeled with 200 μCi ^51Cr (NEN Life Sciences, Boston Mass.) for 18 h at 37° C. Before mixing with effectors, the targets were washed two times with medium, and resuspended at 2×10^5 cells/ml. […] Specific lysis was calculated using the following equation: % specific lysis=(experimental release−spontaneous release)/(maximum release−spontaneous release)×100. […]

[3] = test system: TC-1 cells; test: Metastatic tumor model (i.p. TC-1 cells) after vaccination, survival and TC-1 rechallenge; assay type: in vivo, mice; conditions: 10 μg E7 peptide in PBS days 0 and 5; 1×10^6 TC-1 cells day 10
[4] = test system: tumor; test: In vivo tumor therapy with LPD/E7 and formulations of LPD components; set-up: species or system mice; conditions: 20 days after treatment; tumor injected 6 days before onset of treatment
Text: FIG. 9. Tumor growth kinetics on mice treated with LPD/E7 and other different formulations.
It is speculated that by condensing DNA, protamine helped to bring DNA inside the liposomes. E7 peptide was thought to bind to DNA via electrostatic interaction (Dileo et al., 2003). […] On the other hand, E7might only be loosely bound in the LD/E7 particles.

Row | Compound | Stimulation of CD 80 expression [1] | also measured
1 | CCCCCCCCCCCC(=O)OC[C@H](COP(=O)(OCC)OCC[N+](C)(C)C)OC(=O)CCCCCCCCCCC (stereo partly drawn) [DLEPC-12:0, 1,2-dilauroyl-sn-glycero-3-ethylphosphocholine] | more potent | –
2 | CCCCCCCCCCCCCC(=O)OCC(COP(=O)(OCC)OCC[N+](C)(C)C)OC(=O)CCCCCCCCCCCCC (stereo not drawn) [DMEPC-14:0, 1,2-dimyristoyl-sn-glycero-3-ethylphosphocholine] | more potent | –
3 | CCCCCCCC/C=C\CCCCCCCC(=O)OC[C@@H](COP(=O)(OCC)OCC[N+](C)(C)C)OC(=O)CCCCCCC/C=C\CCCCCCCC (stereo partly drawn) [DOEPC-18:1, 1,2-dioleoyl-sn-glycero-3-ethylphosphocholine] | more potent | –
4 | CCCCCCCCCCCCCCCC(=O)OCC(C[N+](C)(C)C)OC(=O)CCCCCCCCCCCCCCC (stereo not drawn) [DPTAP-16:0, 1,2-palmitoyl-3-trimethylammonium propane] | much lower expression of CD80 | –
5 | CCCCCCCCCCCCCCCCCC(=O)OCC(C[N+](C)(C)C)OC(=O)CCCCCCCCCCCCCCCCC (stereo not drawn) [DSTAP-18:0, 1,2-distearoyl-3-trimethylammonium propane] | much lower expression of CD80 | –
6 | E7 peptide: MHC class I restricted peptide from the HPV 16 E7 protein (aa 49 to 57, RAHYNIVTF), given in PBS | – | CTL activity [2]: no CTL induction; mice surviving beyond 20 days after TC-1 cell injection [3]: 20%; Tumor growth after treatment [4]: kept growing rapidly
7 | CCCCCCCCCCCCOS(=O)(=O)[O-].[Na+] [SDS, sodium dodecyl sulfate] | could not activate | –
